Patent publication US6362134B1, “Herbicidal 1,2,4,6-thiatriazines” (Syngenta Investment Corporation, priority 1996, dated 2002)

Columns and labels:
[1] = tested on: Avena; assay: Herbicidal action before emergence of the plants (pre-emergent action); assay type: in vivo; conditions: 2000 g of active substance/ha, sprayed immediately after sowing, evaluated after 3 weeks, ratings scale of nine levels (1=complete damage, 9=no action)
Protocol: (§1) Monocotyledon and dicotyledon test plants are sown in standard soil in plastic pots. Immediately after sowing, the test substances are sprayed on (500 l of water/ha) in an aqueous suspension prepared from a 25% wettable powder (Example F3, b)), corresponding to a dosage of 2000 g of active substance/ha. The test plants are then grown under optimum conditions in a greenhouse. After a test period of 3 weeks, the test is evaluated with a ratings scale of nine levels (1=complete damage, 9=no action). Ratings of 1 to 4 (in particular 1 to 3) mean a good to very good herbicidal action.
(§2) Test plants: Avena, Setaria, Sinapis, Stellaria

[2] = tested on: Setaria; assay: as above; assay type: in vivo; set-up: key: 1=complete damage; 9=no action; Ratings of 1 to 4 (in particular 1 to 3) mean a good to very good herbicidal action; conditions: 2000 g of active substance/ha, sprayed immediately after sowing, evaluated after 3 weeks, ratings scale of nine levels
Protocol: as §1, §2

[3] = tested on: Sinapis; assay: as above; assay type: in vivo; set-up: key: 1=complete damage; 9=no action; Ratings of 1 to 4 (in particular 1 to 3) mean a good to very good herbicidal action; conditions: 2000 g of active substance/ha, sprayed immediately after sowing, evaluated after 3 weeks, ratings scale of nine levels
Protocol: as §1, §2

[4] = tested on: Stellaria; assay: as above; assay type: in vivo; set-up: key: 1=complete damage; 9=no action; Ratings of 1 to 4 (in particular 1 to 3) mean a good to very good herbicidal action; conditions: 2000 g of active substance/ha, sprayed immediately after sowing, evaluated after 3 weeks, ratings scale of nine levels
Protocol: as §1, §2

[5] = tested on: Sinapis; assay: Post-emergent herbicidal action (contact herbicide); assay type: in vivo; set-up: key: 1=complete damage; 9=no action; Ratings of 1 to 4 (in particular 1 to 3) mean a good to very good herbicidal action; conditions: 2000 g of active substance/ha, sprayed in the 4- to 6-leaf stage, evaluated after about 18 days, ratings scale 1-9
Protocol: (§3) Monocotyledon and dicotyledon test plants are grown in plastic pots with standard soil in a greenhouse and, in the 4- to 6-leaf stage, are sprayed with an aqueous suspension of the test substances of the formula 1, prepared from a 25% wettable power (Example F3, b)), corresponding to a dosage of 2000 g of active substance/ha (500 l of water/ha). The test plants are then grown further in the greenhouse under optimum conditions. After a test period of about 18 days, the test is evaluated with a ratings scale of 9 levels (1=complete damage, 9=no action). Ratings of 1 to 4 (in particular 1 to 3) mean a good to very good herbicidal action.
(§4) Test plants: Sinapis, Stellaria

[6] = tested on: Stellaria; assay: as above; assay type: in vivo; set-up: key: 1=complete damage; 9=no action; Ratings of 1 to 4 (in particular 1 to 3) mean a good to very good herbicidal action; conditions: 2000 g of active substance/ha, sprayed in the 4- to 6-leaf stage, evaluated after about 18 days, ratings scale 1-9
Protocol: as §3, §4

[7] = Stability of the isolated compound when left to stand; assay type: physicochemical; conditions: isolated product
Protocol: 4.09 g (0.02 mol) of 1,3,5-trichlorothiatriazine are stirred as a suspension in 50 ml of carbon tetrachloride at −25° C., and a solution of 0.70 g (0.022 mol) of methanol in a little carbon tetrachloride is added dropwise. During this operation, the trichlorothiatriazine dissolves apart from a little insoluble product. The mixture is then warmed to 0° C. and filtered and the filtrate is concentrated on a rotary evaporator at a maximum of 50° C. 3.25 g of the desired product, which, according to the ^13C-NMR spectrum and thin layer chromatogram (silica gel; eluting agent ethyl acetate/hexane 1/3), contains practically no further impurities, are obtained as the residue.

| SMILES | Pre-emergent action, rating, Avena [1] | Pre-emergent action, rating, Setaria [2] | Pre-emergent action, rating, Sinapis [3] | Pre-emergent action, rating, Stellaria [4] | Post-emergent action, rating, Sinapis [5] | Post-emergent action, rating, Stellaria [6] | stability when left to stand [7] | melting point |
| --- | --- | --- | --- | --- | --- | --- | --- | --- |
| NC1=NC(Oc2cc(F)ccc2F)=NS(N2CCCC3CCCCC32)=N1 (stereo not shown) [6.135] | 3 | 3 | 1 | 1 | 3 | 3 |  |  |
| CCN(C1CC(C)CC(C)(C)C1)S1=NC(N)=NC(Oc2c(F)c(F)c(F)c(F)c2F)=N1 (stereo not shown) [6.140] | 4 | 3 | 2 | 1 | 2 | 3 |  |  |
| NC1=NS(N2CCc3ccccc3C2)=NC(Oc2c(F)c(F)c(F)c(F)c2F)=N1 (stereo not shown) [6.145] | 4 | 2 | 1 | 1 | 3 | 3 |  |  |
| CN(Cc1ccc(Cl)nc1)S1=NC(N)=NC(Oc2c(F)c(F)c(F)c(F)c2F)=N1 (stereo not shown) [6.170] | 3 | 4 | 4 | 1 | 2 | 3 |  |  |
| NC1=NS(N2CCc3ccccc3C2)=NC(Oc2c(F)c(F)cc(F)c2F)=N1 (stereo not shown) [6.173] | 4 | 3 | 1 | 1 | 2 | 3 |  |  |
| NC1=NS(N2CC3CCCC2CC3)=NC(Oc2c(F)c(F)c(F)c(F)c2F)=N1 (stereo not shown) [6.185] | 4 | 4 | 1 | 1 | 1 | 1 |  |  |
| CN(Cc1ccccc1)S1=NC(N)=NC(Oc2c(F)c(F)c(F)c(F)c2F)=N1 (stereo not shown) [6.192] | 2 | 1 | 1 | 1 | 2 | 4 |  |  |
| CC1CC(N(C)S2=NC(N)=NC(Oc3c(F)c(F)c(F)c(F)c3F)=N2)CC(C)(C)C1 (stereo not shown) [6.194] | 7 | 5 | 2 | 2 | 2 | 4 |  |  |
| NC1=NC(Oc2c(F)c(F)c(F)c(F)c2F)=NS(N2CCc3ccccc3CC2)=N1 (stereo not shown) [6.200] | 4 | 1 | 1 | 1 | 2 | 2 |  |  |
| NC1=NC(Oc2c(F)c(F)c(F)c(F)c2F)=NS(N2CCCCCC2)=N1 (stereo not shown) [6.229] | 3 | 2 | 1 | 1 | 2 | 3 |  |  |
| NC1=NS(N2CCCCCCCC2)=NC(Oc2c(F)c(F)c(F)c(F)c2F)=N1 (stereo not shown) [6.257] | 3 | 2 | 1 | 1 | 2 | 2 |  |  |
| CC1CC2CCCCC2N1S1=NC(N)=NC(Oc2c(F)c(F)c(F)c(F)c2F)=N1 (stereo not shown) [6.282] | 4 | 2 | 1 | 1 | 1 | 5 |  |  |
| CC1CCN(S2=NC(N)=NC(Oc3c(F)c(F)c(F)c(F)c3F)=N2)C2CCCCC12 (stereo not shown) [6.285] | 5 | 2 | 1 | 1 | 2 | 3 |  |  |
| CC1CC2CCCCC2N(S2=NC(N)=NC(Oc3c(F)c(F)c(F)c(F)c3F)=N2)C1 (stereo not shown) [6.292] | 5 | 1 | 1 | 1 | 2 | 3 |  |  |
| CC1CN(S2=NC(N)=NC(Oc3c(F)c(F)c(F)c(F)c3F)=N2)C2CCCCC12 (stereo not shown) [6.295] | 3 | 1 | 1 | 1 | 1 | 3 |  |  |
| CC1CCC2C(CCN2S2=NC(N)=NC(Oc3c(F)c(F)c(F)c(F)c3F)=N2)C1 (stereo not shown) [6.298] | 3 | 2 | 1 | 1 | 1 | 4 |  |  |
| NC1=NS(N2CCCCCCCC2)=NC(Oc2c(F)c(F)cc(F)c2F)=N1 (stereo not shown) [6.302] | 3 | 2 | 1 | 1 | 2 | 3 |  |  |
| COS1=NC(Cl)=NC(Cl)=N1 (stereo not shown) [Example H3, 1-methoxy-3,5-dichlorothiatriazine] |  |  |  |  |  |  | unstable and decomposes within a few hours when left to stand |  |
| COC1=NS(OC)=NC(Oc2cc(F)ccc2F)=N1 (stereo not shown) [Example H10, 1,3-dimethoxy-5-(2′,5′-di-fluorophenoxy)thiatriazine] |  |  |  |  |  |  |  | 75 to 76 °C |
| CC(C)OS1=NC(N)=NC(Oc2cc(F)ccc2F)=N1 (stereo not shown) [Example H14, 3-amino-1-isopropoxy-5-(2′,5′-difluorophenoxy)thiatriazine] |  |  |  |  |  |  |  | 163 to 164 °C |
| CCCN(CCC)S1=NC(N)=NC(Oc2cc(F)ccc2F)=N1 (stereo not shown) [Example H17, 3-amino-1-dipropylamino-5-(2′,5′-difluorophenoxy)thiatriazine] |  |  |  |  |  |  |  | 184 to 185 °C |
